Where a name gives a salt, the structure may show the parent alone. Blank lines part the entries; values can stand above or below the molecule they belong to.
Tests used:
E. coli = assay: MIC of compounds against E. coli (OD600, 48 h); format: cell-based; settings: Escherichia coli; for inhibition at 12 µM: compound alone at 12 μM, read-out: Growth inhibition of E. coli at 12 μM; for inhibition at 12 µM / MIC: NA=no activity; for inhibition at 25 µM: read-out: Growth inhibition of E. coli at 25 μM, compound alone at 25 μM, NA=no activity; for inhibition at 50 µM: read-out: Growth inhibition of E. coli at 50 μM, compound alone at 50 μM, NA=no activity; for MIC: MIC = 90% growth inhibition, compound alone
wild-type E. coli = assay: Sensitization of wild-type E. coli toward antibiotics (MIC of antibiotic with/without sensitizer); format: cell-based, Escherichia coli; settings: compound at 5 μg/ml; strain and antibiotic not stated in Table 8
Protocol: Bacteria were cultured with the antibiotic at various concentrations in the presence or absence of bacterial sensitizer for 24 hours at 37° C. Bacterial growth density was determined by measuring OD600 (absorbance measured at a wavelength of 600 nm). […]
The formula for calculating FIC is shown below: […]

B. subtilis = assay: MIC of compounds against B. subtilis (OD600, 48 h); format: cell-based; settings: Bacillus subtilis; for MIC: MIC = 90% growth inhibition, compound alone; for inhibition at 2 µM: read-out: Growth inhibition of B. subtilis at 2 μM, compound alone at 2 μM; for inhibition at 1 µM: read-out: Growth inhibition of B. subtilis at 1 μM, compound alone at 1 μM; for inhibition at 12 µM: compound alone at 12 μM, read-out: Growth inhibition of B. subtilis at 12 μM; for inhibition at 6 µM: read-out: Growth inhibition of B. subtilis at 6 μM, compound alone at 6 μM, NA=no activity; for inhibition at 25 µM: read-out: Growth inhibition of B. subtilis at 25 μM, compound alone at 25 μM; for inhibition at 12.5 µM: compound alone at 12.5 μM, NA=no activity, read-out: Growth inhibition of B. subtilis at 12.5 μM; for inhibition at 3 µM: read-out: Growth inhibition of B. subtilis at 3 μM, compound alone at 3 μM, NA=no activity
Protocol: Bacteria were then cultured with varying concentration of the compounds shown below for 48 hours, and then bacterial density was measured based on OD600. The procedure to determine the MIC for each compound against B. subtilis was the same except that the bacteria was cultured in nutrient broth. The MIC of each compound against B. subtilis is shown in Table 2 (NA=no activity, --=not tested).

SMILES: Cc1cc(CSc2ccc(C3=NCCN3)cc2)cc(CSc2ccc(C3=NCCN3)cc2)c1 [drawing 792]
inhibition at 12.5 µM (E. coli; compound alone at 12.5 μM, read-out: Growth inhibition of E. coli at 12.5 μM): 10%

SMILES: CC(C)(C)c1cc(COc2ccc(C(=N)N)cc2F)cc(COc2ccc(C(=N)N)cc2F)c1 [Compound E-15, 1,3-bis {[4-amidino-2-fluoro]-phenoxymethyl]}-5-(tert-butyl)benzene dihydrochloride]
Sensitization fold (wild-type E. coli): 256

SMILES: N=C(N)c1ccc(OCc2cccc(COc3ccc(C(=N)N)cc3F)c2F)c(F)c1 [drawing 757]
inhibition at 12 µM (E. coli): 40% | inhibition at 25 µM (E. coli): 70% | inhibition at 50 µM (E. coli): 90% | MIC (B. subtilis): 12.5 µM | inhibition at 2 µM (B. subtilis): 10%

SMILES: CC(C)(C)c1cc(COc2ccc(C(=N)N)cc2)cc(COc2ccc(C(=N)N)cc2)c1 [drawing 770]
inhibition at 12 µM (E. coli): 40% | inhibition at 25 µM (E. coli): 90% | MIC (B. subtilis): 6 µM | inhibition at 1 µM (B. subtilis): 10% | inhibition at 2 µM (B. subtilis): 70%

SMILES: N=C(N)c1ccc(OCc2cccc(COc3ccc(C(=N)N)cc3F)c2F)c(F)c1 [Compound A-1, 4,4′-(((2-Fluoro-1,3-phenylene)bis(methylene))bis(oxy))bis(3-fluorobenzimidamide) Dihydrochloride]
Sensitization fold (wild-type E. coli): 8

SMILES: Cc1cc(OCc2ccc(C(=N)N)cc2)cc(OCc2ccc(C(=N)N)cc2)c1 [drawing 783]
inhibition at 25 µM (E. coli): 30% | inhibition at 12 µM (B. subtilis): 20%

MIC (B. subtilis): 12 µM
SMILES: N=C(N)c1ccc(OCc2cc(COc3ccc(C(=N)N)cc3)cc(COc3ccc(C(=N)N)cc3)c2)cc1 [drawing 781]
inhibition at 12 µM (E. coli): 40% | inhibition at 25 µM (E. coli): 60% | inhibition at 6 µM (B. subtilis): 80%

MIC (B. subtilis): 50 µM
SMILES: Cc1cc(COc2ccc(C3=CCCCN3)cc2)cc(COc2ccc(C3=NCCCN3)cc2)c1
inhibition at 25 µM (B. subtilis): 50%

SMILES: Cc1cc(COc2ccc(C(=N)N)cc2F)cc(COc2ccc(C(=N)N)cc2F)c1 [Compound E-18, 1,3-Bis {[4-amidino-2-fluoro)-phenoxymethyl]}-5-methyl-benzene dihydrochloride]
Sensitization fold (wild-type E. coli): 32

SMILES: Cc1cc(-c2nc3cc(C(=N)N)ccc3n2C)sc1-c1ccc(OCCCCOc2ccc(C(=N)N)cc2)cc1 [drawing 775]
inhibition at 25 µM (E. coli): 30% | inhibition at 12 µM (B. subtilis): 70%

MIC (E. coli): 25 µM
SMILES: N=C(N)c1ccc(OCCCCCCCCOc2ccc(C(=N)N)cc2)cc1 [drawing 774]

SMILES: N=C(N)c1ccc(Oc2ccc(C(=N)N)cc2)cc1 [drawing 755]
inhibition at 12.5 µM (B. subtilis): 60% | inhibition at 25 µM (B. subtilis): 70%

SMILES: COc1cc(C(=N)N)ccc1OCc1cc(COc2ccc(C(=N)N)cc2OC)cc(C(C)(C)C)c1 [drawing 788]
inhibition at 50 µM (E. coli): 80% | inhibition at 3 µM (B. subtilis): 30% | inhibition at 6 µM (B. subtilis): 40%

SMILES: Cc1cc(CSc2ccc(C(=N)N)cc2)cc(CSc2ccc(C(=N)N)cc2)c1 [drawing 791]
inhibition at 12 µM (E. coli): 15% | inhibition at 3 µM (B. subtilis): 10% | inhibition at 6 µM (B. subtilis): 40%

SMILES: Cc1ccc(COc2ccc(C(=N)N)cc2)cc1COc1ccc(C(=N)N)cc1 [drawing 793]
inhibition at 12 µM (B. subtilis): 60% | inhibition at 6 µM (B. subtilis): 40%

SMILES: N=C(N)c1ccc2[nH]c(-c3ccc(-c4ccc(-c5ccc(-c6ccc(-c7nc8cc(C(=N)N)ccc8[nH]7)cc6)s5)s4)cc3)nc2c1 [drawing 772]
inhibition at 50 µM (E. coli): 10% | inhibition at 12 µM (B. subtilis): 20% | inhibition at 6 µM (B. subtilis): 20%

SMILES: N=C(N)c1ccc2nc(-c3ccc(OCC(F)(F)C(F)(F)COc4ccc(-c5nc6ccc(C(=N)N)cc6[nH]5)cc4)cc3)[nH]c2c1 [drawing 753]
inhibition at 25 µM (E. coli): 50% | inhibition at 12.5 µM (B. subtilis): 10% | inhibition at 25 µM (B. subtilis): 20%

SMILES: CCCCc1cc(OCc2ccc(C(=N)N)cc2)cc(OCc2ccc(C(=N)N)cc2)c1 [drawing 796]
inhibition at 10 µM (E. coli; read-out: Growth inhibition of E. coli at 10 μM, compound alone at 10 μM): 20%

SMILES: N=C(N)c1ccc(OCc2ccc(-c3ccc(C(=N)N)cc3)cc2)cc1 [drawing 756]
inhibition at 25 µM (E. coli): 50% | MIC (B. subtilis): 12.5 µM | inhibition at 2 µM (B. subtilis): 30%

SMILES: Fc1c(COc2ccc(C3=NCCN3)cc2)cccc1COc1ccc(C2=NCCN2)cc1 [drawing 763]
inhibition at 25 µM (E. coli): 20%

SMILES: N=C(N)c1ccc(OCOc2ccc(C(=N)N)cc2)cc1 [drawing 777]
inhibition at 12.5 µM (B. subtilis): 80% | inhibition at 6 µM (B. subtilis): 10%

SMILES: CC(C)NC(=N)c1ccc(OCc2cccc(COc3ccc(C(=N)NC(C)C)cc3F)c2F)c(F)c1 [drawing 785]
inhibition at 12 µM (E. coli): 40% | inhibition at 25 µM (E. coli): 50% | inhibition at 12 µM (B. subtilis): 70% | inhibition at 6 µM (B. subtilis): 60%

SMILES: CO/N=C(\N)c1ccc(OCc2cc(C)cc(COc3ccc(/C(N)=N\OC)cc3)c2)cc1 [drawing 795]
MIC (E. coli): 100 µM

SMILES: CC(C)(C)c1cc(COc2ccc(C(=N)N)cc2F)cc(COc2ccc(C(=N)N)cc2F)c1 [drawing 789]
MIC (E. coli): 50 µM | MIC (B. subtilis): 50 µM

SMILES: Cc1cc(COc2ccc(CN)cc2)cc(COc2ccc(CN)cc2)c1 [drawing 780]
inhibition at 12 µM (E. coli): 10% | inhibition at 25 µM (E. coli): 30% | inhibition at 12 µM (B. subtilis): 10%

SMILES: Cc1cc(COc2cccc(C(=N)N)c2)cc(COc2cccc(C(=N)N)c2)c1 [drawing 790]
inhibition at 50 µM (E. coli): 80% | MIC (B. subtilis): 50 µM

SMILES: Cc1cc(CCc2ccc(C(=N)N)cc2)cc(CCc2ccc(C(=N)N)cc2)c1 [drawing 782]
inhibition at 12 µM (E. coli): 10% | inhibition at 25 µM (E. coli): 20% | inhibition at 12 µM (B. subtilis): 80% | inhibition at 6 µM (B. subtilis): 30%

SMILES: CC(C)NC(=N)c1ccc(OCc2cccc(COc3ccc(C(=N)NC(C)C)cc3)c2F)cc1 [drawing 784]
inhibition at 12 µM (E. coli): 60% | inhibition at 25 µM (E. coli): 80% | inhibition at 12 µM (B. subtilis): 80% | inhibition at 6 µM (B. subtilis): 70%

SMILES: N=C(N)c1ccc(OCc2cccc(COc3ccc(C(=N)N)cc3)c2F)cc1 [drawing 758]
inhibition at 12 µM (E. coli): 80% | inhibition at 6 µM (E. coli; read-out: Growth inhibition of E. coli at 6 μM, compound alone at 6 μM): 60% | inhibition at 12 µM (B. subtilis): 60% | inhibition at 6 µM (B. subtilis): 50%

SMILES: COc1cc(C(=N)N)ccc1OCc1cccc(COc2ccc(C(=N)N)cc2OC)c1F [drawing 769]
inhibition at 12 µM (E. coli): 30% | inhibition at 25 µM (E. coli): 50% | inhibition at 12 µM (B. subtilis): 50% | inhibition at 6 µM (B. subtilis): 25%

SMILES: c1cc(COc2ccc(C3=NCCN3)cc2)cc(COc2ccc(C3=NCCN3)cc2)c1 [drawing 762]
inhibition at 12 µM (E. coli): 25% | inhibition at 25 µM (E. coli): 50%

SMILES: Cn1c(CCc2nc3cc(C(=N)N)ccc3n2C)nc2cc(C(=N)N)ccc21 [drawing 759]
inhibition at 50 µM (E. coli): 10% | inhibition at 12.5 µM (B. subtilis): 20% | inhibition at 25 µM (B. subtilis): 70%

SMILES: N=C(N)c1ccc(OCc2ccc(COc3ccc(C(=N)N)cc3)cc2)cc1 [drawing 766]
inhibition at 12 µM (E. coli): 10% | inhibition at 25 µM (E. coli): 20% | inhibition at 12 µM (B. subtilis): 70% | inhibition at 6 µM (B. subtilis): 60%

SMILES: Cc1cc(COc2ccc(C(=N)N)cc2)cc(COc2ccc(C(=N)N)cc2)c1 [drawing 761]
inhibition at 12 µM (E. coli): 15% | inhibition at 25 µM (E. coli): 25% | inhibition at 12 µM (B. subtilis): 20% | inhibition at 25 µM (B. subtilis): 50%

SMILES: Cn1c(CCCCc2nc3ccc(C(=N)N)cc3n2C)nc2ccc(C(=N)N)cc21 [drawing 754]
inhibition at 25 µM (B. subtilis): 20%

SMILES: N=C(N)c1ccc(OCc2cccc(COc3ccc(C(=N)N)cc3)c2)cc1 [drawing 773]
inhibition at 12 µM (E. coli): 35% | inhibition at 25 µM (E. coli): 50% | inhibition at 50 µM (E. coli): 60% | inhibition at 12 µM (B. subtilis): 70% | inhibition at 2 µM (B. subtilis): 30% | inhibition at 6 µM (B. subtilis): 60%

MIC (B. subtilis): 12 µM
SMILES: Cn1c(-c2ccc(-c3ccc(C(=N)N)cc3)s2)nc2cc(-c3ccc(C(=N)N)cc3)ccc21 [drawing 771]
inhibition at 25 µM (E. coli): 15% | inhibition at 2 µM (B. subtilis): 20% | inhibition at 6 µM (B. subtilis): 50%

SMILES: Cc1cc(COc2ccc(C3=NCCN3)cc2)cc(COc2ccc(C3=NCCN3)cc2)c1 [drawing 779]
inhibition at 12 µM (E. coli): 10% | inhibition at 25 µM (E. coli): 25% | inhibition at 12 µM (B. subtilis): 25% | inhibition at 6 µM (B. subtilis): 20%

MIC (B. subtilis): 12 µM
SMILES: N=C(N)c1ccc(OCCCCCCOc2ccc(C(=N)N)cc2)cc1 [drawing 778]
inhibition at 12 µM (E. coli): 40% | inhibition at 25 µM (E. coli): 70% | inhibition at 2 µM (B. subtilis): 30% | inhibition at 6 µM (B. subtilis): 40%

SMILES: Cc1cc(COc2ccc(C(=N)N)cc2F)cc(COc2ccc(C(=N)N)cc2F)c1 [drawing 794]
inhibition at 25 µM (E. coli): 30%

MIC (B. subtilis): 12.5 µM
SMILES: N=C(N)c1ccc(OCc2cccc(COc3ccc(C(=N)N)cc3)n2)cc1 [drawing 776]
inhibition at 50 µM (E. coli): 50% | inhibition at 2 µM (B. subtilis): 40%

SMILES: CCCNC(=N)c1ccc(COc2cc(C)cc(OCc3ccc(C(=N)NCCC)cc3)c2)cc1 [drawing 786]
MIC (B. subtilis): 50 µM | inhibition at 12.5 µM (B. subtilis): 30% | inhibition at 25 µM (B. subtilis): 50%

SMILES: Cc1cc(COc2ccc(C(=N)NC(C)C)cc2)cc(COc2ccc(C(=N)NC(C)C)cc2)c1 [drawing 767]
inhibition at 12 µM (E. coli): 40% | inhibition at 25 µM (E. coli): 50% | MIC (B. subtilis): 6 µM | inhibition at 1 µM (B. subtilis): 60% | inhibition at 2 µM (B. subtilis): 70%

SMILES: COc1cc(C(=N)N)ccc1OCc1cc(C)cc(COc2ccc(C(=N)N)cc2OC)c1 [drawing 768]
inhibition at 12 µM (E. coli): 25% | inhibition at 25 µM (E. coli): 50% | MIC (B. subtilis): 6 µM | inhibition at 1 µM (B. subtilis): 10% | inhibition at 2 µM (B. subtilis): 50%
